Reference: paper PMC2363545 (British Journal of Cancer, 2000)
Where “and” joins values, the source holds several entries; their conditions need not be identical. Identical values can stand only once.

Experiments:
[1] = in vivo
[2] = test system: carcinoma of cervix; details: in vivo
[3] = test system: cervix cancer; details: in vivo
[4] = target: DNA-topoisomerase I (Homo sapiens, UniProt P11387); format: biochemical
[5] = test system: metastatic RCC; set-up: species or system human; details: in vivo, po
[6] = test system: advanced head and neck cancer; details: in vivo
[7] = in vivo; remark: listed apart in the source
[8] = in vivo; remark: listed apart in the source
[9] = test system: topoisomerase II expression in NIH3T3 cells
[10] = test system: HUVECs
[11] = test system: metastatic breast cancer; details: in vivo
[12] = test system: MCF7 cells
[13] = test system: colorectal cell lines
[14] = mouse, in vivo
[15] = test system: hepatocytes
[16] = test system: VB6 and H357 SCC cells; format: cell-based, human
[17] = test system: advanced breast cancer; details: in vivo
[18] = test system: anal carcinoma; details: in vivo
[19] = in vivo; remark: listed apart in the source
[20] = test system: NQO2-transfected rodent or non-transfected human tumor cell lines
[21] = in vivo; remark: listed apart in the source
[22] = test system: liver metastases (murine T50/80 breast); set-up: species or system mice; details: mouse, in vivo
[23] = test system: MCF-7
[24] = target: reduced-folate carrier (RFC) (Homo sapiens, UniProt P41440); details: read-out: Km for the RFC
reduced-folate carrier (RFC), sequence (P41440 whole entry): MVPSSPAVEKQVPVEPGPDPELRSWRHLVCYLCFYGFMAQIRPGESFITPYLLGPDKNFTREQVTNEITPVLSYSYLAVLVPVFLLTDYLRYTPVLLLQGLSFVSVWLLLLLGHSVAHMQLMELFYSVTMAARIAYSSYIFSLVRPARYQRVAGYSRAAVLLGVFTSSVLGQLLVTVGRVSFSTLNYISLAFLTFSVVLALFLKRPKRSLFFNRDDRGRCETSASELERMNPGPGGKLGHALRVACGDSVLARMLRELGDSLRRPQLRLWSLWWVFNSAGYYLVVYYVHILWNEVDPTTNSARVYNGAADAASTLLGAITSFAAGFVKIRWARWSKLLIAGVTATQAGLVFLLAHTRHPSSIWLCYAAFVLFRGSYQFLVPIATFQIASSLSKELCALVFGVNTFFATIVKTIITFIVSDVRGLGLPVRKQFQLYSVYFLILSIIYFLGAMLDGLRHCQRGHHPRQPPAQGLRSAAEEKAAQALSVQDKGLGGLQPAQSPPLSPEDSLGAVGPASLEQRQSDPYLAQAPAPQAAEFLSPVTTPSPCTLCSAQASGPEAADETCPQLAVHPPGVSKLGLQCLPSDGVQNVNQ

[25] = test system: breast cancer cell lines; details: cited from earlier work
[26] = test system: tubulin
[27] = test system: breast cancer cell lines
[28] = test system: SCLC; details: in vivo

DNA-topoisomerase I, sequence (P11387 whole entry): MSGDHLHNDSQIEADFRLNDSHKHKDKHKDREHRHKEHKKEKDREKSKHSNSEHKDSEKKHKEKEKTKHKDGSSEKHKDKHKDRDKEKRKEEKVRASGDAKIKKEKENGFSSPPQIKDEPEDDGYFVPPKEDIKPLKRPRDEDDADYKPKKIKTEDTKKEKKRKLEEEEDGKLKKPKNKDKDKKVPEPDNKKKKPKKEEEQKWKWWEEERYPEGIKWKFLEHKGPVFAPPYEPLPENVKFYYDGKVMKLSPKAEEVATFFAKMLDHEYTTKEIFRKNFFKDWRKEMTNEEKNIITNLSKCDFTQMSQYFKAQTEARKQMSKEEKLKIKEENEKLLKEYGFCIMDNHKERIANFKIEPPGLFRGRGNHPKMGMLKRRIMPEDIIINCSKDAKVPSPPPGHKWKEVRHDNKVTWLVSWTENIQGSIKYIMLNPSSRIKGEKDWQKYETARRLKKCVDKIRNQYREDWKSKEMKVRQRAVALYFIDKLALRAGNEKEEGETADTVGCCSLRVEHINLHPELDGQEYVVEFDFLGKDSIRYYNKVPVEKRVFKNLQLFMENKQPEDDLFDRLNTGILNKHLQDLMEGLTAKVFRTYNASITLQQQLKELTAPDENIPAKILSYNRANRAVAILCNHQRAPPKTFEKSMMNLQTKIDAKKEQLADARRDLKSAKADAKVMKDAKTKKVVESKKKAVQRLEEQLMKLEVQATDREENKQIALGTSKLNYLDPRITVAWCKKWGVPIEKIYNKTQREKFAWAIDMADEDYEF

## N.N.[Cl][Pt][Cl] [cisplatin]
[1]
  hypomagnesaemia: 14 % of all chemotherapy cycles
[2]
  general malaise: 56%
[3]
  grade 3 or severe (grade 4) neutropaenia: 27%
  some degree of neutropaenia: 70 % of patients
  thrombocytopaenia: 12%

## CC[C@@]1(O)C(=O)OCc2c1cc1n(c2=O)Cc2cc3ccccc3nc2-1 [camptothecin]
[4]
  nicked DNA / cleavage: 90%

## O=C1CCC(N2C(=O)c3ccccc3C2=O)C(=O)N1 (stereo not shown) [Thalidomide]
[5]
  response rate: 10%

## Oc1cccc(-c2c3nc(c(-c4cccc(O)c4)c4ccc([nH]4)c(-c4cccc(O)c4)c4nc(c(-c5cccc(O)c5)c5ccc2[nH]5)CC4)C=C3)c1 [Foscan]
[6]
  neurotoxicity: No specific neurotoxicity
  tumour effect: consistent tumour necrosis

## carboplatin
[7]
  AUC achieved, mean standard deviation: 11420 % of target
[8]
  Grade 1 reaction: 45 % of patients
  HSR on rechallenge with a platinum compound: 66%
  grade II reaction: 25 % of patients
  grade III reaction: 30 % of patients
  incidence of HSR: 10.5%
  mean duration of HSR: 44 min
  mean time interval between initial exposure and HSR: 26.5 months
  mean time of onset of symptoms: 14.5 min
  overall incidence of HSR: 4.5%

## CCOc1ccc(-c2nc3ccc(-c4nc5ccc(N6CCN(C)CC6)cc5[nH]4)cc3[nH]2)cc1 [Hoechst 33342]
[9]
  expression of top2 at confluence: increased expression

## COc1cc2c(c(OC)c1OC)-c1ccc(O)cc1[C@@H](NC(C)=O)CC2 [N-acetylcolchinol]
[10]
  concentrations at which toxicity/antiproliferative effects occur: > 100 M

## CC(=O)O[C@@]12CO[C@@H]1C[C@H](O)[C@@]1(C)C(=O)[C@H](O)C3=C(C)[C@@H](OC(=O)[C@H](O)[C@@H](NC(=O)OC(C)(C)C)c4ccccc4)C[C@@](O)([C@@H](OC(=O)c4ccccc4)[C@H]21)C3(C)C [TAX]
[11]
  median survival: 204 days
  patients requiring admission due to neutropenic sepsis: 40%
  patients showing response: 53%

## O=P(O)(O)C(O)(Cn1ccnc1)P(=O)(O)O [zoledronate]
[12]
  proportion of apoptotic cells: significant increase

## CC[C@H](CO)Nc1nc(NCc2ccccc2)c2ncn(C(C)C)c2n1 [roscovitine]
[13]
  cross-resistance of HCT116/8FP cells: no cross-resistance
[14]
  correlation of PK parameters, combination vs alone (spearman r): 0.99
  ranking of AUC and clearance: highest AUC and the lowest clearance

## COc1cc(/C=C/C(=O)CC(=O)/C=C/c2ccc(O)c(OC)c2)ccc1O [curcumin, diferuloylmethane]
[15]
  metabolism: metabolised to THC, HHC and HHCO

## COc1c(C[C@@H](C)OC(=O)Oc2ccc(O)cc2)c2c3c(C[C@@H](C)OC(=O)c4ccccc4)c(OC)c(=O)c4c(O)cc(OC)c(c5c(OC)cc(O)c(c1=O)c52)c43 [Calphostin C]
[16]
  VB6 cell migration reduced to: 7.8%

## CC(C)(C#N)c1cc(Cn2cncn2)cc(C(C)(C)C#N)c1 [AN]
[17]
  OR (CR+PR): 29%
  median TTP: 8.5 months and 10.7 months
  thromboembolic events: 4.5%
  vaginal bleeding: 1.2%

## O=c1[nH]cc(F)c(=O)[nH]1 [5-FU]
[18]
  PD: 4%
  PR: 22%
  acute skin toxicity grade 3: 96%
  clinical CR: 74%
[19]
  Kelim: 3.7 0.8 hr-1

## NC(=O)c1cc(N2CC2)c([N+](=O)[O-])cc1[N+](=O)[O-] [CB1954, 5-(aziridin-l-yl)-2,4-dinitrobenzamide]
[20]
  increase in CB 1954 cytotoxicity in the presence of NRH: 100-3000 fold
[21]
  drug unchanged in the urine: < 5%
  median elimination half-life: 51 min
  time serum levels greater than 0.1 µM: more than 4 hours
  time serum levels greater than 1 M: 2 h
[21]; iv
  maximum tolerated dose (MTD): 37.5 mg/m2

## COc1ccc(/C=C\c2cc(OC)c(OC)c(OC)c2)cc1O [combretastatin A4]
[22]
  average decrease in tumour volume: 30%

## Cn1cnc2c(NCc3ccccc3)nc(NCCO)nc21 [olomoucine]
[14]
  correlation of PK parameters, combination vs alone (spearman r): 0.90

## C[C@]12CC[C@@H]3c4ccc(O)cc4CC[C@H]3[C@@H]1CC[C@@H]2O [E2, Oestradiol]
[23]
  induction of integrin 1 expression: 1.7 fold
  reduction of integrin 1 expression: 29%

## C#CCN(Cc1cc2c(=O)[nH]c(C)nc2cc1C)c1ccc(C(=O)N[C@@H](CCc2nnn[nH]2)C(=O)O)c(F)c1 [ZD9331]
[24]
  Km: 1 to 2 µM

## CC/C(=C(\c1ccccc1)c1ccc(OCCN(C)C)cc1)c1ccccc1 [TAM]
[17]
  OR (CR+PR): 27%
  median TTP: 7.0 months and 6.4 months
  thromboembolic events: 7.6%
  vaginal bleeding: 2.9%

## COc1cc2c(cc1OS(N)(=O)=O)CC[C@@H]1[C@@H]2CC[C@]2(C)C(=O)CC[C@@H]12 [2-MeOEMATE, 2-Methoxyestrone-3-O-Sulfamate]
[25]
  G2/M arrest in breast cancer cells in vitro: induced G2/M arrest
[26]
  effect on tubulin assembly: inhibited the ability of paclitaxel to promote tubulin assembly
[27]
  fold more potent than parent compounds: > 10 fold

## C[C@@H](O)[C@@H]1NC(=O)[C@H](CCCCN)NC(=O)[C@@H](Cc2c[nH]c3ccccc23)NC(=O)[C@H](Cc2ccccc2)NC(=O)[C@@H](NC(=O)[C@H](N)Cc2ccccc2)CSSC[C@@H](C(=O)N[C@H](CO)[C@@H](C)O)NC1=O [Octreotide]
[28]
  neutropenic pyrexia: 9 % of treatment cycles
